What was measured:
[1] = test system: mononuclear cells; experiment: H&E staining, peripheral mononuclear cell infiltration in EAE mice; assay type: in vivo, C57BL/6J mice; conditions: GSNO 1 mg/kg/day or FeTPPS 30 mg/kg/day i.p.
Experimental: EAE was induced as described previously (Nath et al., 2009). Animal procedures were approved by the institutional animal care and use committee of MUSC (AR #1644). Briefly, female C57BL/6J mice of 8-12 weeks of age weighing 18-22 g (The Jackson Laboratory, Bar Harbor, Me., USA) were randomly divided into four groups: 1) EAE animals treated with vehicle (EAE; n=8), 2) EAE with GSNO (1 mg/kg body weight per day; i.p.) treatment (EAE+GSNO; n=12), 3) EAE with FeTPPS (30 mg/kg body weight per day; i.p.) treatment (EAE+FeTPPS; n=8), 4) control with vehicle (Ctrl; n=8). The group size was determined by power analysis based on our previous data (Nadi et al., 2009). Then, the mice were immunized subcutaneously in the flank regions with MOG35-55 peptide (MOG; 200 ug; Peptide International) emulsified (1:1) in 100 ul complete Freund's adjuvant (CFA) CHI day 0 and day 7. […] Clinical signs of EAE were scored in animal facility in a blinded fashion to experimenter between 2 and 4 pm daily by examiners blinded to experimental treatments using the following scale: 0=no clinical signs of disease; 1=limp tail or waddling gait with tail tonicity; 2=waddling gait with limp tail (ataxia); 2.5=ataxia with partial limb paralysis; 3=full paralysis of one limb; 3.5=full paralysis of one limb with partial paralysis of second limb; 4=full paralysis of two limbs; 4.5=moribund stage; 5=death. […]

[2] = test system: myelin; experiment: Spinal cord demyelination (MBP staining and Western) in EAE mice; assay type: in vivo, C57BL/6J mice; conditions: GSNO 1 mg/kg/day or FeTPPS 30 mg/kg/day i.p.
Experimental: Western immunoblot analysis was performed by standard method using 50 μg of cell lysates. Following the SDS-PAGE electrophoresis, proteins were transferred from the gel onto the Polyvinylidene fluoride membrane (GE Healthcare Life Sciences, Marlborough, Mass.). […]
EAE was induced as described previously (Nath et al., 2009). […] The group size was determined by power analysis based on our previous data (Nadi et al., 2009). […] Clinical signs of EAE were scored in animal facility in a blinded fashion to experimenter between 2 and 4 pm daily by examiners blinded to experimental treatments using the following scale: 0=no clinical signs of disease; 1=limp tail or waddling gait with tail tonicity; 2=waddling gait with limp tail (ataxia); 2.5=ataxia with partial limb paralysis; 3=full paralysis of one limb; 3.5=full paralysis of one limb with partial paralysis of second limb; 4=full paralysis of two limbs; 4.5=moribund stage; 5=death. […]
Animals were anesthetized and fixed with cardiac perfusion of 4% paraformaldehyde (Nath et al., 2004). […] To assess the status of myelin, the sections were stained with antibody specific to MBP and detected with secondary antibody conjugated with immunofluorescent analysis. […]

[3] = test system: 3-nitrotyrosine; experiment: Western analysis of 3-nitrotyrosine in rat brains with TBI; assay type: in vivo, Sprague Dawley rats; conditions: 24 hr after TBI, traumatic penumbra; GSNO 0.05 mg/kg i.v. or FeTPPS 3 mg/kg i.v.
Experimental: Western immunoblot analysis was performed by standard method using 50 μg of cell lysates. Following the SDS-PAGE electrophoresis, proteins were transferred from the gel onto the Polyvinylidene fluoride membrane (GE Healthcare Life Sciences, Marlborough, Mass.). Membranes were blocked with non-fat dry milk (Santa Cruz Biotechnology) or I-Block™ (ThermoFisher Scientific, Waltham, Mass.) for detection of phospho-proteins and incubated with primary antibodies, such as MBP (Santa Cruz Biotech Cat #: sc13914; RRID: AB_648798), phospho-(Ser^19) MLC (Abeam, Cat #: ab2480; RRID: AB_303094), MLC (Abeam, Cat #: ab79935; RRID:AB_1952220), P-actin (Santa Cruz Biotechnology, Cat #: sc-47778; RRID:AB_2714189), phospho-eNOS (Ser^1177) (Cell Signaling, Cat #: 9571; RRID: AB_329837, Danvers, Mass.), eNOS (Cell Signaling, Cat #: 32027), RhoA (Santa Cruz Biotechnology; Cat #: sc418; RRID: AB_628218) or 3-nitrotyrosine (Abeam, Cat #: ab61392; RRID: AB_942087). […]
All animals used in this study received humane care in compliance with the Medical University of South Carolina's (MUSC) guidance and the National Research Council's criteria for humane care. […] The group size was determined by power analysis based on our previous data (Khan et al., 2016b; Khan et al., 2009). […]

Structure (SMILES) | extravasation of peripheral mononuclear cells into the CNS [1] | protection of myelin in the spinal cord [2] | brain levels of 3-nitrotyrosine [3]
Cl.O=S(=O)([O-])c1ccc(-c2c3nc(c(-c4ccc(S(=O)(=O)O)cc4)c4ccc([nH]4)c(-c4ccc(S(=O)(=O)O)cc4)c4nc(c(-c5ccc(S(=O)(=O)O)cc5)c5ccc2[nH]5)C=C4)C=C3)cc1.[Fe] [FeTPPS, 5,10,15,20-Tetrakis(4-sulfonatophenyl)porphyrinato Iron (III), Cl, reference compound] | significantly decreased | protected myelin | reduced
N[C@@H](CCC(=O)N[C@@H](CSN=O)C(=O)NCC(=O)O)C(=O)O [GSNO, S-nitrosoglutathione] | significantly decreased | protected myelin | reduced

— patent US10925858B2, “S-nitrosoglutathione (GSNO) and GSNO reductase inhibitors for use in therapy” (MUSC FOUNDATION FOR RESEARCH DEVELOPMENT, priority 2017, dated 2021)
